Measurements as given in patent publication US11285167B2, “Synergistic nutritional neuroprotective compositions for ameliorating neural dysfunction” (CELAGENEX RESEARCH (INDIA) PVT. LTD., priority 2019, dated 2022).

Key:
Interleukin - 6 = test: Interleukin-6 level in global ischemia reperfusion induced brain injury (cerebral infarction) model; assay type: in vivo, Wistar rats; conditions: global ischemia (30 min)/72 h reperfusion, oral daily for 10 days, mean ± SEM, n = 6
[1] = test system: Major depression disorder in Wistar rats; test: Forced swim test in Reserpine-induced major depression disorder; assay type: in vivo; conditions: for Immobility / mobility in forced swim test (in words): compared to disease control or to individual test substances
[2] = test system: Major depression disorder in Wistar rats; test: Open field test (ambulatory behavior) in Reserpine-induced major depression disorder; assay type: in vivo
Lactate dehydrogenase = Lactate dehydrogenase (LDH) level in Valproic acid-induced autism disorder; assay type: in vivo, Albino wistar rats; conditions: for LDH: VPA 400 mg/kg, oral daily for 26 days, mean ± SEM; for Levels of lactate dehydrogenase (in words): compared to Disease control or to Group-3 and Group-4
Method: (§1) The present study was to evaluate the effect of test substances on Valproic acid induced Autism spectrum disorder in wistar rats. The animals (50 animals) were divided into five groups each group consisting of 10 animals (5 animals per sex). Animals in Group-1 were treated with vehicle (0.5% CMC), Group-2 was treated with Valproic acid (VPA) 400 mg/kg via subcutaneous route, Group-3, Group-4 and Group-5 were treated with test substance Agmatine Sulphate (25.83 mg/kg), Nicotinamide Riboside chloride (6.46 mg/kg) and Agmatine Sulphate+Nicotinamide Riboside chloride (25.83 mg/kg+6.46 mg/kg) respectively, according to the body weight of animals. At the end of the experimental period, blood was collected from each group for biochemical analyses. On postnatal day 40 (PND 40), all the animals were exposed to the Morris water maze test and Open field test for specific time periods to determine the autism-like behaviors of the test substances.
The experiment was performed in 14-day old male and female off springs. The weight of the rat pups on the first day of the experiment was 20-40 grams. Sodium Valproate at dose of 400 mg/kg was freshly prepared and administered via subcutaneous route to the rat pups on postnatal day 14 (PND 14). All the animals were divided into five groups and each group contained the same amount of male and female offspring (5 males and 5 females, per group). Animals in Group-1 served as Normal control and were treated with 0.5% CMC, Group-2 served as Disease control and were treated with VPA (400 mg/kg) via intraperitoneally (i.p.), whereas Group-3 was treated with Test-1 Agmatine Sulphate (25.83 mg/kg), Group-4 was treated with Test-2 Nicotinamide Riboside chloride (6.46 mg/kg) and Group-5 was treated with Test-1+Test-2 Agmatine Sulphate+Nicotinamide Riboside chloride (25.83 mg/kg+6.46 mg/kg). The assigned test substances were administered once daily from PND 14 to PND 40. In addition, behaviors of experimental animals were determined via Morris water maze and open field test.
The test item formulations were administered once each day by oral route at the dose levels of 25.83 mg/kg (agmatine sulphate), 6.46 mg/kg (nicotinamide riboside chloride) and 25.83 mg/kg+6.46 mg/kg/day (agmatine sulphate+nicotinamide riboside chloride), to rats of corresponding groups for a minimum of 26 consecutive days at approximately same time each day (±1 hour). The dose volume administered to each rat was 10 ml/kg/day. Similarly, 0.5% CMC for Normal control and Disease control groups was administered orally at the same dose volume for a minimum of 26 consecutive days. The dose volume was calculated for individual animals on the first day of the treatment and was re-calculated according to the recent body weights recorded during the study. Daily individual dose volumes were recorded in the study records.
Lactate dehydrogenase (also called lactic acid dehydrogenase or LDH) is an enzyme found in almost all body tissues. It plays an important role in cellular respiration, the process by which glucose (sugar) from food is converted into usable energy for our cells.

[3] = test system: Major depression disorder in Wistar rats; test: Overall behavioral evaluation in major depression disorder study (forced swim and open field tests); assay type: in vivo; conditions: oral 7 consecutive days
[4] = test system: Valproic acid-induced autism disorder in albino Wistar rats; test: Overall autism-like behavior in VPA model of autism disorder; assay type: in vivo
Method: as §1, with “substances. […] The experiment was performed in 14-day old male and female off springs. The weight of the rat pups on the first day of the experiment was 20-40 grams. Sodium Valproate at dose of 400 mg/kg was freshly prepared and administered via subcutaneous route to the rat pups on postnatal day 14 (PND 14). […] In addition, behaviors of experimental animals were determined via Morris water maze and open field test. […]” for “substances.”

[5] = forced swim test 5 min, Reserpine 1.0 mg/kg induced, oral daily 7 days, mean ± SEM, n = 6

## N=C(N)NCCCCN.O=S(=O)(O)O [Agmatine sulphate]
Interleukin - 6
  Interleukin - 6 Levels: 91.39 ± 0.92 pg/mL
[1]
  Immobility / mobility in forced swim test (in words): mobility of the animals in the treatment groups increased
[1]; [5]
  Climbing: 16.50 ± 0.43
  Immobility: 99.67 ± 0.67
[2]; po
  No. of open arm entries (Open field test): 36.00 ± 0.86
Lactate dehydrogenase; Female
  LDH: 272.20 ± 3.34 U/L
Lactate dehydrogenase; Male
  LDH: 268.20 ± 2.56 U/L
Lactate dehydrogenase
  Levels of lactate dehydrogenase (in words): normalized levels of lactate dehydrogenase
[3]
  Effect on major depression disorder (in words): positive effects on major depression disorder
[4]
  Autism-like behavior (in words): improved autism-like behavior

## NC(=O)c1ccc[n+]([C@@H]2O[C@H](CO)[C@@H](O)[C@H]2O)c1.[Cl-] [Nicotinamide Riboside chloride, nicotinamide riboside chloride]
Interleukin - 6
  Interleukin - 6 Levels: 109.56 ± 0.27 pg/mL
[1]
  Immobility / mobility in forced swim test (in words): mobility of the animals in the treatment groups increased
[1]; [5]
  Climbing: 15.50 ± 0.62
  Immobility: 105.50 ± 0.85
  Total time spent in active swimming: 185.33 ± 0.67 s
[2]; 6 minute session, Reserpine induced, oral daily 7 days, mean ± SEM, n = 6
  No. of open arm entries (Open field test): 31.33 ± 0.71
Lactate dehydrogenase; Female
  LDH: 275.80 ± 1.71 U/L
Lactate dehydrogenase; Male
  LDH: 274.00 ± 3.11 U/L
Lactate dehydrogenase
  Levels of lactate dehydrogenase (in words): normalized levels of lactate dehydrogenase
[3]
  Effect on major depression disorder (in words): positive effects on major depression disorder
[4]
  Autism-like behavior (in words): improved autism-like behavior
